Source: PMC8262356, “SLC26A6-selective inhibitor identified in a small-molecule screen blocks fluid absorption in small intestine” (JCI Insight, 2021)

Experiments:
[1] = molecular target: T1, slc26a2 (Mus musculus, UniProt Q62273); test: Selectivity: Cl-/I- exchange in 293T/17 cells transfected with slc26a2 and YFP; type: cell-based; details: 25 μM, 10 min preincubation
T1 construct: Full -length slc26a2 cDNAs; expressed in transfected cells; host or cells: 293 T/17 cells, transient transfection with pIRES-HIF vector (IRES-YFP, not fused)
T1 sequence (Q62273 1-739): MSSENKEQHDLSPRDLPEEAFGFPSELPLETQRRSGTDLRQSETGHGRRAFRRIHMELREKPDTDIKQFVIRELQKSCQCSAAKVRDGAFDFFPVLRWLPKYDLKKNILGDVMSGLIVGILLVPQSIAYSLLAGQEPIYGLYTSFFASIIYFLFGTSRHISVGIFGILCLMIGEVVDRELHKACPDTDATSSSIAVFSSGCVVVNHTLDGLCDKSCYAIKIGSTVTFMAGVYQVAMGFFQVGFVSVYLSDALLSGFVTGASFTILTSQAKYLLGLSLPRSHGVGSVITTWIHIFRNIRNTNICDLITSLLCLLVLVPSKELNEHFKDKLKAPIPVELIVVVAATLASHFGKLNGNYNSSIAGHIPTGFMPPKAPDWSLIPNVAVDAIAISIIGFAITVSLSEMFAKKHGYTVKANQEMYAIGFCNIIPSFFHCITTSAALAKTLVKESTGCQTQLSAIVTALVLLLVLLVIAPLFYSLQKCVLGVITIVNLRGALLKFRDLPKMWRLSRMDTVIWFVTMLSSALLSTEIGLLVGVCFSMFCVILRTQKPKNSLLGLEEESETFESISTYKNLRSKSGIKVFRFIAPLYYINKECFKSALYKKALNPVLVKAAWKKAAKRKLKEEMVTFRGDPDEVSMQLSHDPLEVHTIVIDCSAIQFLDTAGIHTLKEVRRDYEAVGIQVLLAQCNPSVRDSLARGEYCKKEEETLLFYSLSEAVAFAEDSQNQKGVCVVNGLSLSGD
Description: YFP-based cellular assays of slc26a3, slc26a4, SLC26A9, and TMEM16A function were performed as described previously ([7]). Slc26a1 and slc26a2 assays were done in transfected HEK 293 cells (see Supplemental Methods for details). Niflumic acid was used as a positive control for SLC26A isoforms ([7]). For TMEM16A, the selective small-molecule inhibitor TMinh-23 was used as a positive control ([28]). The activities of ENaC, CFTR, and CaCC were determined using well-differentiated HBE cells as described previously ([13]). Cl^–/HCO3^– exchange was measured as described previously ([7], [10], [11]). Briefly, cell cytoplasm was labeled with the pH-sensitive fluorescent dye BCECF-AM (Invitrogen), and Cl^–/HCO3^– exchange was measured in response to addition of a gluconate-containing solution to drive exchange of cytoplasmic Cl^– for extracellular HCO3^–, producing cytoplasmic alkalinization.
Slc26a1 and slc26a2 cDNA constructs
The complementar y DNA sequences of slc26a1 and slc26a2 were generated using gB LOCK gene fragments (Int egrat ed DNA technology, Coralville, IA) in the plasmid vector pIRESpuro3 (Takara, San J ose, CA). […]
PBS. […] Background-corrected, area-integrat ed single cell fluorescence was calcul ated for determination of slc26a1 / slc26a2 activit y from the rate of fluorescence quenching. […]

[2] = tested on: FRT cells; test: Cytotoxicity, Alamar Blue assay; type: cell-based, rat; details: 10 μM, 48 h
Description: FRT cells were plated in black-walled, clear-bottom tissue culture plates at a density of 20,000 cells/well. After 24 hours in culture, cells were incubated with 10 μM PAT1inh-B01, 0.1% DMSO (vehicle control), or 20 % DMSO (positive control) for 48 hours for assay of cell viability using Alamar Blue (Thermo Fischer Scientific) according to the manufacturer’s instructions.

effect on slc26a2 activity [1]: did not affect
SMILES: Cc1c(Br)c(C(F)(F)F)nn1CC(=O)N1CCc2nc3cc(-c4ccccc4)[nH]n3c(=O)c2C1 [PAT1inh-B01]
cytotoxicity (cell viability, Alamar Blue) [2]: did not cause cytotoxicity
